Experimental data reported in patent US20090035306A1 (KALYPSYS, INC., priority 2006, published 2009).

Molecular target: T1, human TGR5 (Homo sapiens, UniProt Q8TDU6)
T1 construct: expressed in transfected cells
T1 sequence (Q8TDU6 1-330): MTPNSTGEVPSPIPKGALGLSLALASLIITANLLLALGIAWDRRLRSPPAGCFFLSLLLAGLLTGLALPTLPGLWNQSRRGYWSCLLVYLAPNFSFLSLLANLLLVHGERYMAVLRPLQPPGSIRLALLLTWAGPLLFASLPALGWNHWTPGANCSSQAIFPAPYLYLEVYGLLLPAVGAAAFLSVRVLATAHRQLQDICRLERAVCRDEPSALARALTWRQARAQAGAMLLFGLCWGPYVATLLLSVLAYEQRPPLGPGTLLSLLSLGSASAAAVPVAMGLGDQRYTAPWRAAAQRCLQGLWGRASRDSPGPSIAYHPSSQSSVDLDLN
Test: cAMP production assay in HEK293 cells stably expressing TGR5 (LANCE TR-FRET)
Type: cell-based
Details: 30 minutes stimulation, read-out: cAMP Production in 293-TGR5 Cells EC50
Procedure: HEK293 cells stably expressing TGR5 (HEK293-TGR5) were established by stably transfecting HEK-293 cells with an expression vector (pcDNA 3.1, Invetrogen) inserted with human TGR5 cDNA using Fugene6 (Roche, Indianapolis, Ind.) according to conventional methods. Cells were grown in DMEM (invitrogen, Carlsbad, Calif.) supplemented with 10% FBS, 1% penicillin/streptomycin under geneticin selection. The presence of TGR5 transcripts in these cells was confirmed using branched DNA (bDNA, Genospectra, Inc., Fremont Calif.) following the manufacturer's protocol and using specific probes for human TGR5. cAMP production assay was performed in high throughput 1536 well format using LANCE cAMP detection kit (Perkin Elmer Inc., Boston, Mass.) according to the manufacturer's protocol. Briefly, HEK293-TGR5 cells were harvested using non-enzymatic cell dissociation buffer (Invitrogen, Carlsbad, Calif.) and suspended in DMEM supplemented with 0.1% FBS at a density of 800,000 cells/ml. Alexa antibody was added to the cell suspension, and 4 ul of the mixture was dispensed in white opaque tissue culture treated Greiner 1536 well plates (USA Scientific, Inc., Ocala, Fla.). After an overnight incubation at 37 C in an atmosphere of 10% CO2 and 95% humidity, 1 ul of 5 mM IBMX (Sigma, St. Louis, Mo.) solution in DMEM was dispensed for a final concentration of 1 mM. Cells were then stimulated with test compounds for 30 minutes, after which time 5 ul of detection reagent was added and incubated for 1-7 hrs at room temperature. TR-FRET signal was detected using the Viewlux (Perkin Elmer Inc., Boston Mass.). EC50 values were determined using Graph Pad Prizm analysis (GraphPad Software, Inc). The EC50 values for a wide range of bile acids generated from this assay were in agreement with the values published in the scientific literature. […] The symbol (+) denotes an EC50 value of ≦10 μM while the symbol (−) denotes an EC50 value of >10 μM (see Table 1).

| EC50 | Structure (SMILES) |
| --- | --- |
| ≤ 10 µM | O=c1c2ccccc2nc(-c2ccc(F)cc2)n1NCCc1ccc(Br)cc1 [Example 85, 3-(4-bromophenethylamino)-2-(4-fluorophenyl)quinazolin-4(3H)-one] |
| ≤ 10 µM | O=c1c2ccccc2nc(-c2ccc(Cl)cc2)n1NCc1ccc(Cl)cc1 [Example 51, 3-(4-chlorobenzylamino)-2-(4-chlorophenyl)quinazolin-4(3H)-one] |
| ≤ 10 µM | COc1cc(-c2nc3ccccc3c(=O)n2NCc2ccc(Cl)cc2)ccc1O [Example 100, 3-(4-chlorobenzylamino)-2-(4-hydroxy-3-methoxyphenyl)quinazolin-4(3H)-one] |
| ≤ 10 µM | O=c1c2ccccc2nc(-c2ccc(O)cc2)n1NCc1ccc(Br)cc1 [Example 97, 3-(4-bromobenzylamino)-2-(4-hydroxyphenyl)quinazolin-4(3H)-one] |
| > 10 µM | COc1ccccc1-c1nc2ccccc2c(=O)n1NCc1ccc(Br)cc1 [Example 19, 3-(4-bromobenzylamino)-2-(2-methoxyphenyl)quinazolin-4(3H)-one] |
| ≤ 10 µM | COc1cccc(-c2nc3ccccc3c(=O)n2NCc2ccc(Cl)cc2)c1 [Example 56, 3-(4-chlorobenzylamino)-2-(3-methoxyphenyl)quinazolin-4(3H)-one] |
| > 10 µM | CN(C)c1ccc(-c2nc3ccccc3c(=O)n2NCc2ccc(Br)cc2)cc1 [Example 42, 3-(4-bromobenzylamino)-2-(4-(dimethylamino)phenyl)quinazolin-4(3H)-one] |
| ≤ 10 µM | Cc1ccc(-c2nc3ccccc3c(=O)n2NCc2ccc(Cl)cc2)cc1Cl [Example 110, 2-(3-chloro-4-methylphenyl)-3-(4-chlorobenzylamino)quinazolin-4(3H)-one] |
| ≤ 10 µM | COc1ccc(-c2nc3ccccc3c(=O)n2NCc2ccc(Br)cc2)cc1O [Example 118, 3-(4-bromobenzylamino)-2-(3-hydroxy-4-methoxyphenyl)quinazolin-4(3H)-one] |
| ≤ 10 µM | O=c1c2ccccc2nc(-c2ccc(F)cc2)n1NCc1ccc(F)cc1F [Example 80, 3-(2,4-difluorobenzylamino)-2-(4-fluorophenyl)quinazolin-4(3H)-one] |
| > 10 µM | CC(C)c1ccc(CNn2c(-c3ccc(F)cc3)nc3ccccc3c2=O)cc1 [Example 2, 2-(4-fluorophenyl)-3-(4-isopropylbenzylamino)quinazolin-4(3H)-one] |
| ≤ 10 µM | COc1cccc(-c2nc3ccccc3c(=O)n2NCc2ccc(Br)cc2)c1 [Example 55, 3-(4-bromobenzylamino)-2-(3-methoxyphenyl)quinazolin-4(3H)-one] |
| ≤ 10 µM | O=c1c2ccccc2nc(-c2ccccc2Cl)n1NCc1ccc(Br)cc1 [Example 10, 3-(4-bromobenzylamino)-2-(2-chlorophenyl)quinazolin-4(3H)-one] |
| ≤ 10 µM | Cc1cccc2c(=O)n(NCc3ccc(Cl)cc3)c(-c3ccc(F)cc3)nc12 [Example 71, 3-(4-chlorobenzylamino)-2-(4-fluorophenyl)-8-methylquinazolin-4(3H)-one] |
| ≤ 10 µM | O=c1c2ccccc2nc(-c2ccccc2F)n1NCc1ccc(Cl)cc1Cl [Example 4, 3-(2,4-dichlorobenzylamino)-2-(2-fluorophenyl)quinazolin-4(3H)-one] |
| ≤ 10 µM | O=c1c2ccccc2nc(-c2cccc(Cl)c2)n1NCc1ccc(Cl)cc1 [Example 48, 3-(4-chlorobenzylamino)-2-(3-chlorophenyl)quinazolin-4(3H)-one] |
| ≤ 10 µM | Cc1cccc2nc(-c3ccc(F)cc3)n(NCc3ccc(Br)cc3)c(=O)c12 [Example 111, 3-(4-bromobenzylamino)-2-(4-fluorophenyl)-5-methylquinazolin-4(3H)-one] |
| ≤ 10 µM | COc1cc(-c2nc3ccccc3c(=O)n2NCc2ccc(F)c(F)c2)ccc1C [Example 69, 3-(3,4-difluorobenzylamino)-2-(3-methoxy-4-methylphenyl)quinazolin-4(3H)-one] |
| ≤ 10 µM | COc1ccc2nc(-c3ccccc3F)n(NCc3ccc(F)cc3F)c(=O)c2c1 [Example 27, 3-(2,4-difluorobenzylamino)-2-(2-fluorophenyl)-6-methoxy quinazolin-4(3H)-one] |

| EC50 | Structure (SMILES) |
| --- | --- |
| ≤ 10 µM | COc1cc(-c2nc3ccccc3c(=O)n2NCc2ccc(Br)cc2)ccc1O [Example 99, 3-(4-bromobenzylamino)-2-(4-hydroxy-3-methoxyphenyl)quinazolin-4(3H)-one] |
| ≤ 10 µM | O=c1c2ccccc2nc(C2CCCCC2)n1NCc1ccc(Cl)cc1 [Example 45, 3-(4-chlorobenzylamino)-2-cyclohexylquinazolin-4(3H)-one] |
| ≤ 10 µM | CCCN(Cc1ccc(Br)cc1)n1c(-c2ccc(F)cc2)nc2ccccc2c1=O [Example 94, 3-((4-bromobenzyl)(propyl)amino)-2-(4-fluorophenyl)quinazolin-4(3H)-one] |
| > 10 µM | O=c1c2ccc(C(F)(F)F)cc2nc(-c2ccccc2F)n1NCc1ccc(Br)cc1 [Example 28, 3-(4-bromobenzylamino)-2-(2-fluorophenyl)-7-(trifluoromethyl)quinazolin-4(3H)-one] |
| ≤ 10 µM | O=c1c2ccccc2nc(-c2ccc(Cl)cc2)n1NCc1ccc(Br)cc1 [Example 47, 3-(4-bromobenzylamino)-2-(4-chlorophenyl)quinazolin-4(3H)-one] |
| ≤ 10 µM | COc1cc(-c2nc3ccccc3c(=O)n2NCc2ccc(Cl)cc2)ccc1Cl [Example 75, 3-(4-Chloro-benzylamino)-2-(4-chloro-3-methoxy-phenyl)-3H-quinazolin-4-one] |
| ≤ 10 µM | O=c1c2ccccc2nc(-c2cccc(Cl)c2)n1NCc1ccc(F)c(F)c1 [Example 50, 2-(3-chlorophenyl)-3-(3,4-difluorobenzylamino)quinazolin-4(3H)-one] |
| ≤ 10 µM | O=c1c2ccccc2nc(-c2cccc(OC(F)(F)F)c2)n1NCc1ccc(Cl)cc1 [Example 61, 3-(4-chlorobenzylamino)-2-(3-(trifluoromethoxy)phenyl)quinazolin-4(3H)-one] |
| ≤ 10 µM | COc1ccc(-c2nc3ccccc3c(=O)n2NCc2ccc(Br)cc2)cn1 [Example 116, 3-(4-bromobenzylamino)-2-(6-methoxypyridin-3-yl)quinazolin-4(3H)— one] |
| ≤ 10 µM | O=c1c2ccccc2nc(-c2ccccc2F)n1NCc1ccc(C(F)(F)F)c(F)c1 [Example 21, 3-(3-fluoro-4-(trifluoromethyl)benzylamino)-2-(2-fluorophenyl)quinazolin-4(3H)-one] |
| ≤ 10 µM | O=c1c2ccccc2nc(-c2ccccc2F)n1NCc1ccc(Br)cc1 [Example 5, 3-(4-bromobenzylamino)-2-(2-fluorophenyl)quinazolin-4(3H)-one] |
| ≤ 10 µM | COc1cc(-c2nc3ccccc3c(=O)n2NCc2ccc(Cl)cc2)ccc1C [Example 66, 3-(4-chlorobenzylamino)-2-(3-methoxy-4-methylphenyl)quinazolin-4(3H)-one] |
| ≤ 10 µM | Cc1cccc2c(=O)n(NCc3ccc(Br)cc3)c(-c3ccc(F)cc3)nc12 [Example 70, 3-(4-bromobenzylamino)-2-(4-fluorophenyl)-8-methylquinazolin-4(3H)-one] |
| ≤ 10 µM | CN(C)c1ccc(-c2nc3ccccc3c(=O)n2NCc2ccc(Cl)cc2)cc1 [Example 43, 3-(4-chlorobenzylamino)-2-(4-(dimethylamino)phenyl)quinazolin-4(3H)-one] |
| ≤ 10 µM | O=c1c2ccccc2nc(-c2ccccc2F)n1NCc1cccc(Br)c1 [Example 3, 3-(3-bromobenzylamino)-2-(2-fluorophenyl)quinazolin-4(3H)-one] |
| ≤ 10 µM | O=c1c2ccccc2nc(-c2cccs2)n1NCc1ccc(C(F)(F)F)cc1 [Example 87, 2-(thiophen-2-yl)-3-(4-(trifluoromethyl)benzylamino)quinazolin-4(3H)-one] |
| ≤ 10 µM | Cc1cc(-c2nc3ccccc3c(=O)n2NCc2ccc(Br)cc2)ccc1F [Example 54, 3-(4-bromobenzylamino)-2-(4-fluoro-3-methylphenyl)quinazolin-4(3H)-one] |
| > 10 µM | COc1ccc2nc(-c3ccccc3F)n(NCc3ccc(Br)cc3)c(=O)c2c1 [Example 26, 3-(4-bromobenzylamino)-2-(2-fluorophenyl)-6-methoxy quinazolin-4(3H)-one] |
| ≤ 10 µM | O=c1c2c(F)cccc2nc(-c2ccc(F)cc2)n1NCc1ccc(Br)cc1 [Example 112] |
